Reference: ChEMBL document CHEMBL5113481, “Design, synthesis and biological evaluation of quinoline-2-carbonitrile-based hydroxamic acids as dual tubulin polymerization and histone deacetylases inhibitors” (Eur J Med Chem, 2022)
≈ marks a conversion by molar mass, not a printed value. Calls of active or inactive are those of the source. The calls are words filed in the database; no cut-off is given here.

Columns and labels:
[1] = test system: HCT-116; experiment: Antiproliferative activity against human HCT-116 cells after 72 hrs by CellTiter Glo assay; assay type: functional, cell-based; conditions: for GI50: time 72 hrs
[2] = test system: MCF7; experiment: Antiproliferative activity against human MCF7 cells after 72 hrs by CellTiter Glo assay; assay type: functional, cell-based; conditions: MCF7, 72 h
[3] = test system: NCI-N87; experiment: Antiproliferative activity against human NCI-N87 cells after 72 hrs by CellTiter Glo assay; assay type: functional, cell-based; conditions: NCI-N87, 72 h
[4] = test system: K562; experiment: Antiproliferative activity against human K562 cells after 72 hrs by CellTiter Glo assay; assay type: functional, cell-based; conditions: K562, 72 h
[5] = test system: HT-29; experiment: Antiproliferative activity against human HT-29 cells after 72 hrs by CellTiter Glo assay; assay type: functional, cell-based; conditions: HT-29, 72 h
[6] = test system: K562; experiment: Antiproliferative activity against imatinib-resistant human K562 cells over expressing MDR1 after 72 hrs by CellTiter Glo assay; assay type: functional, cell-based; conditions: K562, 72 h
[7] = test system: MIA PaCa-2; experiment: Antiproliferative activity against human MIA PaCa-2 cells after 72 hrs by CellTiter Glo assay; assay type: functional, cell-based; conditions: MIA PaCa-2, 72 h
[8] = test system: A549; experiment: Antiproliferative activity against human A549 cells after 72 hrs by CellTiter Glo assay; assay type: functional, cell-based; conditions: A549, 72 h
[9] = Metabolic stability in human liver microsomes assessed as half-life measured upto 6 hrs in presence of NADPH generating system by HPLC-MS/MS analysis; assay type: ADME, Microsome
[10] = test system: SK-OV-3; experiment: Antiproliferative activity against human SK-OV-3 cells after 72 hrs by CellTiter Glo assay; assay type: functional, cell-based; conditions: SK-OV-3, 72 h
[11] = Metabolic stability in rat liver microsomes assessed as half-life measured upto 6 hrs in presence of NADPH generating system by HPLC-MS/MS analysis; assay type: ADME, Microsome
[12] = Metabolic stability in rat liver microsomes assessed as intrinsic clearance per mg protein measured upto 6 hrs in presence of NADPH generating system by HPLC-MS/MS analysis; assay type: ADME, Microsome; conditions: read-out: CLH
[13] = Metabolic stability in human liver microsomes assessed as intrinsic clearance per mg protein measured upto 6 hrs in presence of NADPH generating system by HPLC-MS/MS analysis; assay type: ADME, Microsome; conditions: read-out: CLH
[14] = test system: MDA-MB-231; experiment: Antiproliferative activity against human MDA-MB-231 cells after 72 hrs by CellTiter Glo assay; assay type: functional, cell-based; conditions: MDA-MB-231, 72 h
[15] = Solubility of compound in water; assay type: physicochemical
[16] = test system: HT-29; experiment: Induction of mitochondrial dysfunction in human HT-29 cells at 2 nM measured after 48 hrs by JC-1 staining based flow cytometry; assay type: functional, cell-based
[17] = test system: HT-29; experiment: Cell cycle arrest in human HT-29 cells assessed as accumulation of cells in G2/M phase at 5 nM measured after 24 hrs by PI staining based flow cytometry method; assay type: functional
[18] = biological target: T1, Histone deacetylase 11 (Homo sapiens, UniProt Q96DB2); experiment: Inhibition of HDAC11 (unknown origin) measured by fluorometry assay
T1 sequence (Q96DB2 whole entry): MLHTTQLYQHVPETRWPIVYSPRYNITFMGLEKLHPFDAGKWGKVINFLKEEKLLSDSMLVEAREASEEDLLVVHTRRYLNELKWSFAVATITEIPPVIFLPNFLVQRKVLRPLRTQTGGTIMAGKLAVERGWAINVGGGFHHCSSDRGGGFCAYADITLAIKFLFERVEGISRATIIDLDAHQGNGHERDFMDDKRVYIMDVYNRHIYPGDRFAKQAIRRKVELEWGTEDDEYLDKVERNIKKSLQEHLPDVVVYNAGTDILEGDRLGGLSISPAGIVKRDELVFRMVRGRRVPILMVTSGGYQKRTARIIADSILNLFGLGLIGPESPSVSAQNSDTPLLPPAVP

[19] = biological target: T2, Histone deacetylase 8 (Homo sapiens, UniProt Q9BY41); experiment: Inhibition of HDAC8 (unknown origin) measured by fluorometry assay
T2 sequence (Q9BY41 whole entry): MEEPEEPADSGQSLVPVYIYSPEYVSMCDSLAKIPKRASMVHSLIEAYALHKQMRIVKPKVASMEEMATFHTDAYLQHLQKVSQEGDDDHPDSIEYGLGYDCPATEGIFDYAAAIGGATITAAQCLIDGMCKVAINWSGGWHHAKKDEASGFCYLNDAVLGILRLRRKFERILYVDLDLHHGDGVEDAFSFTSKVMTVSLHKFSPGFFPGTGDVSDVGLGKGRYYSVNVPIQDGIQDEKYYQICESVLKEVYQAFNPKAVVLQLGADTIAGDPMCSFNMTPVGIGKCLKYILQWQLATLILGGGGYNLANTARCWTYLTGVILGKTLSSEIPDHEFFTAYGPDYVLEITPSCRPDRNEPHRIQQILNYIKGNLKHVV

[20] = test system: HT-29; experiment: Cell cycle arrest in human HT-29 cells assessed as accumulation of cells in G2/M phase at 0.1 to 5 nM measured after 24 hrs by PI staining based flow cytometry method; assay type: functional; conditions: dose 0.1-5 nM, DDE = dose-dependent effect
[21] = biological target: T3, Protein deacetylase HDAC6 (Homo sapiens, UniProt Q9UBN7); experiment: Inhibition of HDAC6 (unknown origin) measured by fluorometry assay
T3 sequence (Q9UBN7 whole entry): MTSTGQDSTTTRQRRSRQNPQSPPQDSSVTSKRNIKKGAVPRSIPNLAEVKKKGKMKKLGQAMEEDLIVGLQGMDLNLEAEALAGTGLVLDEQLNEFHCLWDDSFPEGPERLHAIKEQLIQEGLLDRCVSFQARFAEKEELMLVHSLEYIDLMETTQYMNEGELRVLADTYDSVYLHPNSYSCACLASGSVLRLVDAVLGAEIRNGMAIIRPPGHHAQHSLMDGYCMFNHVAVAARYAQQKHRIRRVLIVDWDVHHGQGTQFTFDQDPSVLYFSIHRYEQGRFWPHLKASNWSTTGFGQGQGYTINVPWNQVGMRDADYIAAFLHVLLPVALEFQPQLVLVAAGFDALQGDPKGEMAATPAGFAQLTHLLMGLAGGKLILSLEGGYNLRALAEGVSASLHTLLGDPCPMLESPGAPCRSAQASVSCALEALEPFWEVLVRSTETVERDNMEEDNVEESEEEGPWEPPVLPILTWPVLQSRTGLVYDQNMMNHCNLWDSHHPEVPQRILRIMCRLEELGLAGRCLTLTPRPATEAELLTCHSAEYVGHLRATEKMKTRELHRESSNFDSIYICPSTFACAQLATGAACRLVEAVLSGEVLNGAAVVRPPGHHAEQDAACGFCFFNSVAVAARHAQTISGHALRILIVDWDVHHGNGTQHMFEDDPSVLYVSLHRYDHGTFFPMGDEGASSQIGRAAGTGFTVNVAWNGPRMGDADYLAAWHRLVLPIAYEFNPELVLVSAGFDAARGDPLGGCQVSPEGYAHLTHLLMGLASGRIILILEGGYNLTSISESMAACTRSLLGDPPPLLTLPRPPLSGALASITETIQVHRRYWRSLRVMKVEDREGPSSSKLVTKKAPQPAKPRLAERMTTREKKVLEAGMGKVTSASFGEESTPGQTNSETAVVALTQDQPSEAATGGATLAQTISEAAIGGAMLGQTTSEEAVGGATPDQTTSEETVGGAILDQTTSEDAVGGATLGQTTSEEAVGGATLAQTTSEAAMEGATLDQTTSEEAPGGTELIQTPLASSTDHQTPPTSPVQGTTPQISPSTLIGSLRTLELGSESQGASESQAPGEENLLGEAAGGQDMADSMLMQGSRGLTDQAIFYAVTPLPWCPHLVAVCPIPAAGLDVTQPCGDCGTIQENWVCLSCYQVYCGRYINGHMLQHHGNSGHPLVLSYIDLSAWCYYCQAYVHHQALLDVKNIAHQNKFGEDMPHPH

[22] = biological target: Tubulin; experiment: Inhibition of tubulin polymerization in human HeLa cells assessed as microtubule network polymerization after 30 mins by immunofluorescence analysis; assay type: cell-based

## COc1ccc(N(C)c2cc(C#N)nc3ccccc23)cc1OCC(=O)NO
[1]; Homo sapiens, HCT-116
  GI50: 64.5 nM

## COc1ccc(Cn2ccc3ccc(C(=O)NO)cc32)cc1
[2]
  IC50: 2980 nM
[3]
  IC50: 1500 nM
[1]; Homo sapiens, HCT-116
  GI50: 2600 nM
[4]
  IC50: 2010 nM
[5]
  IC50: > 10000 nM
[6]
  IC50: 2200 nM
[7]
  IC50: > 20000 nM
[8]
  IC50: 2000 nM

## COc1ccc(N(C)c2nc(C)nc3ccccc23)cc1/C=C/C(=O)NOC1CCCCO1 (stereo unspecified)
[1]; Homo sapiens, HCT-116
  GI50: 12.5 nM

## C=C(c1ccc(OC)c(/C=C/C(=O)NO)c1)c1cc(OC)c(OC)c(OC)c1
[9]
  half-life: 840 min
[2]
  IC50: 2.2 nM
[3]
  IC50: 3.2 nM
[1]; Homo sapiens, HCT-116, 72 h
  IC50: 1.5 nM
[4]
  IC50: 1.6 nM
[10]
  IC50: 4 nM
[5]
  IC50: 2 nM
[11]
  half-life: 265 min
[12]
  microsomal CLint: 2.57 µL/min/mg
[6]
  IC50: 1.4 nM
[13]
  microsomal CLint: 0.83 µL/min/mg
[7]
  IC50: 6 nM
[8]
  IC50: 2 nM
[14]
  IC50: 4.6 nM

## C=C(c1ccc(OC)c(/C=C/C(=O)NO)c1)c1cc(C)nc2ccccc12
[1]; Homo sapiens, HCT-116
  GI50: 10.1 nM

## COc1ccc(N(C)c2cc(C#N)nc3ccccc23)cc1/C=C/C(=O)NOC1CCCCO1 (stereo unspecified)
[1]; Homo sapiens, HCT-116
  GI50: 4.91 nM

## COc1ccc(N(C)c2cc(C#N)nc3ccccc23)cc1OCCCC(=O)NO
[1]; Homo sapiens, HCT-116
  GI50: 381 nM

## COc1ccc(N(C)c2cc(C#N)nc3ccccc23)cc1/C=C/CCC(=O)NO
[1]; Homo sapiens, HCT-116
  GI50: 34.4 nM

## COc1ccc(N(C)c2nc(C#N)nc3ccccc23)cc1/C=C/C(=O)NO
[1]; Homo sapiens, HCT-116
  GI50: 1.5 nM

## COc1ccc(N(C)c2cc(C#N)nc3ccccc23)cc1I
[1]; Homo sapiens, HCT-116
  GI50: 24.6 nM

## COc1ccc(N(C)c2nc(C)nc3ccccc23)cc1/C=C/C(=O)NO
[15]
  solubility: 65 µg/mL (≈ 178 µM)
[9]
  half-life: 540 min
[16]
  Activity: Active
[17]
  Activity: >95%
[2]
  IC50: 0.8 nM
[3]
  IC50: 0.17 nM
[1]; Homo sapiens, HCT-116
  GI50: 0.6 nM
[4]
  IC50: 0.38 nM
[10]
  IC50: 0.3 nM
[5]
  IC50: 0.66 nM
[11]
  half-life: 212 min
[12]
  microsomal CLint: 3.27 µL/min/mg
[18]
  IC50: 3.2 µM
[19]
  IC50: 280 nM
[6]
  IC50: 1.63 nM
[13]
  microsomal CLint: 1.28 µL/min/mg
[7]
  IC50: 1.1 nM
[20]
  Activity: Dde
[8]
  IC50: 0.51 nM
[21]
  IC50: 2000 nM
[14]
  IC50: 0.55 nM

## COc1ccc(N(C)c2cc(C#N)nc3ccccc23)cc1C#CCCC(=O)NO
[1]; Homo sapiens, HCT-116
  GI50: 25.2 nM

## COc1ccc(N(C)c2cc(C)nc3ccccc23)cc1/C=C/C(=O)NO
[1]; Homo sapiens, HCT-116
  GI50: 6.3 nM

## COc1ccc(N(C)c2cc(C)nc3ccccc23)cc1/C=C/C(=O)NOC1CCCCO1 (stereo unspecified)
[1]; Homo sapiens, HCT-116
  GI50: 30.3 nM

## COc1ccc(/C=C\c2cc(OC)c(OC)c(OC)c2)cc1O [COMBRETASTATIN A4]
[2]
  IC50: 172 nM
[3]
  IC50: 11 nM
[1]; Homo sapiens, HCT-116
  GI50: 2.4 nM
[10]
  IC50: 6 nM
[5]
  IC50: > 10000 nM
[6]
  IC50: 25 nM
[7]
  IC50: 8 nM

## CC(/C=C/C(=O)NO)=C\[C@@H](C)C(=O)c1ccc(N(C)C)cc1 [TRICHOSTATIN]
[2]
  IC50: 54 nM
[3]
  IC50: 58 nM
[1]
  GI50: 35 nM
[4]
  IC50: 260 nM
[10]
  IC50: 100 nM
[5]
  IC50: 55 nM
[6]
  IC50: 90 nM
[7]
  IC50: 200 nM
[8]
  IC50: 80 nM
[14]
  IC50: 91 nM

## C=C(c1ccc(OC)c(O)c1)c1cc(OC)c(OC)c(OC)c1
[9]
  half-life: 720 min
[3]
  IC50: 14 nM
[1]; Homo sapiens, HCT-116
  GI50: 2.2 nM
[22]
  IC50: 6 nM
[10]
  IC50: 5 nM
[11]
  half-life: 254 min
[12]
  microsomal CLint: 2.73 µL/min/mg
[6]
  IC50: 3 nM
[13]
  microsomal CLint: 0.96 µL/min/mg
[8]
  IC50: 12 nM
